Values of other authors as cited in patent US6376534B1, “Compounds useful in pain management” (Astrazeneca Canada Inc., priority 1998, dated 2002).

Experiments:
δ receptor = δ receptor (Homo sapiens, UniProt P41143); conditions: background statement
[1] = background statement

δ receptor, sequence (P41143 whole entry): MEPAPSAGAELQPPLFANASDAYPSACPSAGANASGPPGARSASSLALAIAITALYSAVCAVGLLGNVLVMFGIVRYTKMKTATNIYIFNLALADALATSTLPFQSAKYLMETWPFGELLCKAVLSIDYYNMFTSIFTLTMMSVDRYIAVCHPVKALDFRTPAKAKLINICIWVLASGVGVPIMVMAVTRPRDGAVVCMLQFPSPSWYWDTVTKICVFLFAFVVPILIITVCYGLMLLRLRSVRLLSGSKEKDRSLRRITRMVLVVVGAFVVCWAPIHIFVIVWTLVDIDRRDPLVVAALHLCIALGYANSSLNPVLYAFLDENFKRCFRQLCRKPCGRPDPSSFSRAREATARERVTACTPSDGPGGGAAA

For Oc1ccc2c3c1O[C@H]1c4[nH]c5ccccc5c4C[C@@]4(O)[C@@H](C2)N(CC2CC2)CC[C@]314 [naltrindole], the “selectivity for the δ receptor vs. μ receptor binding” value (δ receptor) is listed as < 10 fold and the analgesic activity [1] is listed as “no analgesic activity”.
